In paper PMC4426668, “De novo synthesis of a sunscreen compound in vertebrates” (eLife, 2015):

Legend:
Format in all cases: biochemical
[1] = target: T1, ValA (ShEEVS) (Streptomyces hygroscopicus, UniProt H2K887); assay: TLC and GC-MS of product; settings: positive control enzyme; 4 mM SH7P, 1 mM NAD+, 0.1 mM CoCl2 or ZnSO4, 20 mM Tris-HCl pH 7.5, 30 °C, 2 h
T1 construct: N-terminal His6 tag (pRSETB-valA), expressed in E. coli BL21 GOLD (DE3) pLysS, Ni-NTA purified

[2] = target: T2, LOC100003999 (zebrafish EEVS, DrEEVS) (Danio rerio, UniProt A0ACD6B5C7); assay: TLC; GC-MS of silylated product against authentic EEV (cell-free extract); settings: 4 mM SH7P, 1 mM NAD+, 0.1 mM CoCl2 or ZnSO4, pH 7.5, 30 °C
T2 construct: N-terminal His6 tag (pRSET-B), codon-optimised synthetic gene, expressed in E. coli BL21 GOLD (DE3) pLysS, Ni-NTA purified
T2 sequence (A0ACD6B5C7 1-470): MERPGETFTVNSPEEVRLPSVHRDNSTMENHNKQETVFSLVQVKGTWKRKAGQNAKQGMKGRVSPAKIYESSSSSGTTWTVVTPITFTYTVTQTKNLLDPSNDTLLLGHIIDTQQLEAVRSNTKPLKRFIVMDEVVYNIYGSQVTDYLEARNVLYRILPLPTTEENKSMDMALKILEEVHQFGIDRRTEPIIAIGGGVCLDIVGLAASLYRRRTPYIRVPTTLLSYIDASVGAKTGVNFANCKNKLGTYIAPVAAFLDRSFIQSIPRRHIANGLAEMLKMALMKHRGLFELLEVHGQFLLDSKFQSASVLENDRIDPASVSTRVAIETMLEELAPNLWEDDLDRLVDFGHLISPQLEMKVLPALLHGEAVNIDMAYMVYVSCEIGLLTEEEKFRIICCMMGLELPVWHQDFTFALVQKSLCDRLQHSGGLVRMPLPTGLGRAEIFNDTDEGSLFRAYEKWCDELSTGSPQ

[3] = target: T3, MT-Ox (zgc:113054) (Danio rerio, UniProt A0ACM8Q6W2); assay: product (gadusol) detection by (-)-ESI-MS; settings: SAM and NAD+ present; 30 °C
T3 construct: gene wu:fd55e12; bifunctional full-length protein (N-terminal SAM methyltransferase domain, C-terminal NAD+ oxidoreductase domain), N-terminal His6 tag (pRSET-B), codon-optimised, E. coli, Ni-NTA purified
T3 sequence (A0ACM8Q6W2 1-551): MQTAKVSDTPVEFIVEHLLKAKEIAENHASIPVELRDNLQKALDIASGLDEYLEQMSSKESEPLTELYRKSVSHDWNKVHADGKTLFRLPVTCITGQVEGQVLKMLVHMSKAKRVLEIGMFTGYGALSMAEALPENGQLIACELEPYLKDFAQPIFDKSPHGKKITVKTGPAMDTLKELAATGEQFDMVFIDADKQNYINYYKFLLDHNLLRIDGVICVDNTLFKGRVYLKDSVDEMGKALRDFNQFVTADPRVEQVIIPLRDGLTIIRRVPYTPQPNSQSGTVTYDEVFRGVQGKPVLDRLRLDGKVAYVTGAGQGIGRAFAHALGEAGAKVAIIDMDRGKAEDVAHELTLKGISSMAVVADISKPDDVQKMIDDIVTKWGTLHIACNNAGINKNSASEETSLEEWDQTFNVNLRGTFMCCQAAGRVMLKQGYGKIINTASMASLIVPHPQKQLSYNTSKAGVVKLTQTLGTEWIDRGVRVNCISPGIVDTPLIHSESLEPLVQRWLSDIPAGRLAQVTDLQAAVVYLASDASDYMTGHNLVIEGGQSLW

[4] = target: T2, LOC100003999 (zebrafish EEVS, DrEEVS); assay: product detection by TLC; GC-MS with cell-free extract; settings: 4 mM SH7P, 1 mM NAD+, 0.1 mM CoCl2 or ZnSO4, 20 mM Tris-HCl pH 7.5, 30 °C, 2 h
[5] = target: T3, MT-Ox (zgc:113054); assay: product (gadusol) detection by HPLC-UV and (-)-ESI-MS; settings: methyl donor, 5 mM; NAD+ 2 mM, CoCl2 0.2 mM, phosphate pH 7.4, 30 °C

T1 sequence (H2K887 whole entry): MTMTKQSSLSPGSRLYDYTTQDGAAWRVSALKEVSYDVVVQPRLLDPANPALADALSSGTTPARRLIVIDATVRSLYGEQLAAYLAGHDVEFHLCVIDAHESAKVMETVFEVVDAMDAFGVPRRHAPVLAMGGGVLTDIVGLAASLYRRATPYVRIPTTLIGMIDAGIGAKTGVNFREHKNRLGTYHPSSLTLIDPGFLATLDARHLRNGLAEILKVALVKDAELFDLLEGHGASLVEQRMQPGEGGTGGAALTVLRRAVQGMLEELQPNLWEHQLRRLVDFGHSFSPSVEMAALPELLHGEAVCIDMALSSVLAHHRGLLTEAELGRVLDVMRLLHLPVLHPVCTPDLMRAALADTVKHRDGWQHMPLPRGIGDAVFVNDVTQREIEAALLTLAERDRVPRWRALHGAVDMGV

Compound	TLC and GC-MS of product [1]	TLC; GC-MS of silylated product against authentic EEV (cell-free extract) [2]	product (gadusol) detection by (-)-ESI-MS [3]	product detection by TLC; GC-MS with cell-free extract [4]	product (gadusol) detection by HPLC-UV and (-)-ESI-MS [5]
O=C1C[C@@](O)(CO)[C@@H](O)[C@H](O)[C@@H]1O [2-epi-5-epi-valiolone]	TLC analysis of enzymatic products of purified ValA and purified LOC100003999	confirmed by thin-layer chromatography (TLC) and GC-MS to be EEV	Synthetic EEV incubated with purified MT-Ox		
O=P(O)(O)OC[C@@H](O)[C@H]1OC(O)(CO)[C@@H](O)[C@@H]1O (stereo partly drawn) [sedoheptulose 7-phosphate]	ValA (instead of LOC100003999) was used as a positive control			Incubation of the recombinant protein with SH7P gave a product	
C[S+](CC[C@H](N)C(=O)O)C[C@H]1O[C@@H](n2cnc3c(N)ncnc32)[C@H](O)[C@@H]1O (stereo partly drawn) [S-adenosylmethionine]					incubated with EEV in the presence of SAM and NAD^+
